Patent US20080015237A1 (ASTRAZENECA AB, priority 2006, published 2008)

Molecular target: human Kv1.5 channel (Homo sapiens, UniProt P22460)
Assay: Test A: Rb+ efflux assay
Format: cell-based
Details: CHO cells stably transfected with cDNA for human Kv1.5
Method: This assay identifies compounds that block the human Kv1.5 channel potassium channel heterologously expressed in Chinese Hamster Ovary (CHO) cells by means of Rb+ ion efflux using Flame Atomic Absorption Spectroscopy. For experimental studies, CHO cells stably transfected with cDNA for human Kv1.5 were grown as confluent layers in Falcon, 384-well tissue culture-treated black-walled clear-bottomed plates and the plates were incubated overnight at 37° C. in a cell culture incubator.
After incubating overnight the cell plates were washed and a buffer containing Rb+ ions were added to the cell plates. The plates were then incubated for another 3-4 hours in a CO2-incubator (37° C.). Following this incubation period plates were washed, compounds were added and subsequently a buffer containing elevated K+ concentrations were added in order to activate the Kv1.5 channel. Following a short incubation time, aliquots of the supernatants were transferred to supernatant plates for subsequent determination of the Rb+ content using Atomic Absorption Spectrometry (ICR8000 instrument, Aurora Biomed Inc.).

Sequence of human Kv1.5 channel (P22460 whole entry): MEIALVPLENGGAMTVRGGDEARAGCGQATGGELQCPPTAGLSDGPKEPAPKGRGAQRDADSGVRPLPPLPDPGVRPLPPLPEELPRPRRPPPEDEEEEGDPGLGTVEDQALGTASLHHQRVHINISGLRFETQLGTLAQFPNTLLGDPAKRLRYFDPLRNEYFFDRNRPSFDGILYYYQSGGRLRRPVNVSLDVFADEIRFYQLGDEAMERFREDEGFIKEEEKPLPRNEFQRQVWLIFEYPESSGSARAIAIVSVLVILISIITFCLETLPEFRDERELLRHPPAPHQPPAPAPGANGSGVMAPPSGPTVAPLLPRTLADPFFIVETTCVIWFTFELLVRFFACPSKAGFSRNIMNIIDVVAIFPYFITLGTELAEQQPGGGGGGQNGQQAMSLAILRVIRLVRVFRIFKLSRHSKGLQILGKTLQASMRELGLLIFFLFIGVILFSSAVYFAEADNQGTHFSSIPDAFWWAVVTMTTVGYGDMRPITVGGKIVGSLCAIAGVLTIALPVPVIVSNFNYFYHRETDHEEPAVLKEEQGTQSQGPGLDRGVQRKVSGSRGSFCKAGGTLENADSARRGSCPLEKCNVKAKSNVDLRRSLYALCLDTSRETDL

SMILES	IC50 [nM]
C[C@H](c1ccccc1)N1C(=O)c2ccc(F)cc2C1C(=O)NCc1ccccc1 (stereo partly drawn) [N-benzyl-6-fluoro-3-oxo-2-[(1R)-1-phenylethyl]isoindoline-1-carboxamide]	1300
O=C(NCc1ccc(F)cc1)C1c2ccccc2C(=O)N1C(c1ccccc1)c1ccccc1 (centres unmarked) [2-(diphenylmethyl)-N-(4-fluorobenzyl)-3-oxoisoindoline-1-carboxamide]	2500
CC(C)(C)CN1C(=O)c2ccccc2C1C(=O)NCc1cccc(OC(F)F)c1 (centres unmarked) [N-[3-(difluoromethoxy)benzyl]-2-(2,2-dimethylpropyl)-3-oxoisoindoline-1-carboxamide]	1300
O=C(NCc1ccccc1)C1c2cc(Br)ccc2C(=O)N1Cc1ccccc1 (centres unmarked) [N,2-dibenzyl-6-bromo-3-oxoisoindoline-1-carboxamide]	840
C[C@H](c1ccccc1)N1C(=O)c2ccc(Cl)cc2C1C(=O)NCc1ccccc1 (stereo partly drawn) [N-benzyl-6-chloro-3-oxo-2-[(1R)-1-phenylethyl]isoindoline-1-carboxamide]	550
CC(C)(C)NC(=O)C1c2ccccc2C(=O)N1Cc1cc(F)ccc1-c1ccccc1 (centres unmarked) [N-(tert-butyl)-2-[(4-fluorobiphenyl-2-yl)methyl]-3-oxoisoindoline-1-carboxamide]	5200
CC(CN1C(=O)c2ccccc2C1C(=O)NCc1ccc(C#N)cc1)c1ccc(Cl)cc1 (centres unmarked) [2-[2-(4-chlorophenyl)propyl]-N-(4-cyanobenzyl)-3-oxoisoindoline-1-carboxamide]	1200
CC(C)(c1ccccc1)N1C(=O)c2ccccc2C1C(=O)NCc1ccccc1 (centres unmarked) [N-benzyl-2-(1-methyl-1-phenylethyl)-3-oxoisoindoline-1-carboxamide]	1700
CC(CN1C(=O)c2ccccc2C1C(=O)NCc1ccccc1C(F)(F)F)c1ccc(Cl)cc1 (centres unmarked) [2-[2-(4-chlorophenyl)propyl]-3-oxo-N-[2-(trifluoromethyl)benzyl]isoindoline-1-carboxamide]	700
CN(Cc1ccccc1)C(=O)C1c2ccccc2C(=O)N1CCc1ccc(Cl)cc1 (centres unmarked) [N-benzyl-2-[2-(4-chlorophenyl)ethyl]-N-methyl-3-oxoisoindoline-1-carboxamide]	890
CC(CN1C(=O)c2ccccc2C1C(=O)NCc1ccc(N(C)C)cc1)c1ccc(Cl)cc1 (centres unmarked) [2-[2-(4-chlorophenyl)propyl]-N-[4-(dimethylamino)benzyl]-3-oxoisoindoline-1-carboxamide]	1800
CC(C)(C)NC(=O)C1c2cc(Cl)ccc2C(=O)N1Cc1ccccc1-c1ccccc1 (centres unmarked) [2-(biphenyl-2-ylmethyl)-N-(tert-butyl)-6-chloro-3-oxoisoindoline-1-carboxamide]	1600
CC(C)(C)NC(=O)C1c2ccccc2C(=O)N1Cc1ccccc1-c1ccc(F)cc1 (centres unmarked) [N-(tert-butyl)-2-[(4′-fluorobiphenyl-2-yl)methyl]-3-oxoisoindoline-1-carboxamide]	7300
O=C(NCCCC(F)F)C1c2cc(Cl)ccc2C(=O)N1Cc1ccccc1C1CCCC1 (centres unmarked) [6-chloro-2-(2-cyclopentylbenzyl)-N-(4,4-difluorobutyl)-3-oxoisoindoline-1-carboxamide]	1300
Cc1c(OCF)ccc2c1C(=O)N(Cc1ccccc1-c1ccccc1)C2C(=O)NC(C)(C)C (centres unmarked) [2-(biphenyl-2-ylmethyl)-N-(tert-butyl)-5-(fluoromethoxy)-4-methyl-3-oxoisoindoline-1-carboxamide]	1700
COc1ccc2c(c1C)C(=O)N(Cc1ccccc1-c1ccccc1)C2C(=O)NC(C)(C)C (centres unmarked) [2-(biphenyl-2-ylmethyl)-N-(tert-butyl)-5-methoxy-4-methyl-3-oxoisoindoline-1-carboxamide]	2200
O=C(NCCCC(F)(F)F)C1c2ccccc2C(=O)N1Cc1ccccc1-c1ccccc1 (centres unmarked) [2-(biphenyl-2-ylmethyl)-3-oxo-N-(4,4,4-trifluorobutyl)isoindoline-1-carboxamide]	1500
O=C(NCc1ccccc1)C1c2ccccc2C(=O)N1Cc1ccccc1-c1ccccc1 (centres unmarked) [N-benzyl-2-(biphenyl-2-ylmethyl)-3-oxoisoindoline-1-carboxamide]	1000
O=C(NCc1ccccc1)C1c2ccccc2C(=O)N1Cc1cc(-c2ccccc2)no1 (centres unmarked) [N-benzyl-3-oxo-2-[(3-phenylisoxazol-5-yl)methyl]isoindoline-1-carboxamide]	1000
Cc1c(O)ccc2c1C(=O)N(Cc1ccccc1-c1ccc(Cl)c(Cl)c1)C2C(=O)NC(C)(C)C (centres unmarked) [N-(tert-butyl)-2-[(3′,4′-dichlorobiphenyl-2-yl)methyl]-5-hydroxy-4-methyl-3-oxoisoindoline-1-carboxamide]	720
CC(C)(C)NC(=O)C1c2ccccc2C(=O)N1Cc1cc(F)ccc1-c1ccc(F)cc1 (centres unmarked) [N-(tert-butyl)-2-[(4,4′-difluorobiphenyl-2-yl)methyl]-3-oxoisoindoline-1-carboxamide]	5600

SMILES	IC50 [nM]
O=C(NCc1ccccc1)C1c2ccccc2C(=O)N1CCc1ccc(Cl)cc1 (centres unmarked) [N-benzyl-2-[2-(4-chlorophenyl)ethyl]-3-oxoisoindoline-1-carboxamide]	560
CC(C)(CO)CN1C(=O)c2ccc(F)cc2C1C(=O)NCc1cccc(Cl)c1 (centres unmarked) [N-(3-chlorobenzyl)-6-fluoro-2-(3-hydroxy-2,2-dimethylpropyl)-3-oxoisoindoline-1-carboxamide]	340
CC(C)(C)CN1C(=O)c2ccccc2C1C(=O)NCc1ccc(Cl)c(Cl)c1 (centres unmarked) [N-(3,4-dichlorobenzyl)-2-(2,2-dimethylpropyl)-3-oxoisoindoline-1-carboxamide]	2500
CC(C)(CO)CN1C(=O)c2ccc(F)cc2C1C(=O)NCc1cccc(C(F)(F)F)c1 (centres unmarked) [6-fluoro-2-(3-hydroxy-2,2-dimethylpropyl)-3-oxo-N-[3-(trifluoromethyl)benzyl]isoindoline-1-carboxamide]	1700
CC(CN1C(=O)c2ccc(Cl)cc2C1C(=O)NCc1ccc(S(C)(=O)=O)cc1)c1ccc(Cl)cc1 (centres unmarked) [6-chloro-2-[2-(4-chlorophenyl)propyl]-N-[4-(methylsulfonyl)benzyl]-3-oxoisoindoline-1-carboxamide]	2800
CC(C)(C)NC(=O)C1c2ccccc2C(=O)N1Cc1ccc(F)cc1-c1ccccc1 (centres unmarked) [N-(tert-butyl)-2-[(5-fluorobiphenyl-2-yl)methyl]-3-oxoisoindoline-1-carboxamide]	13000
O=C(NCCCC(F)(F)F)C1c2cc(Cl)ccc2C(=O)N1Cc1ccccc1-c1ccccc1 (centres unmarked) [2-(biphenyl-2-ylmethyl)-6-chloro-3-oxo-N-(4,4,4-trifluorobutyl)isoindoline-1-carboxamide]	610
CC(CN1C(=O)c2ccc(Cl)cc2C1C(=O)NC(C)(C)C)c1ccc(Cl)cc1 (centres unmarked) [N-(tert-butyl)-6-chloro-2-[2-(4-chlorophenyl)propyl]-3-oxoisoindoline-1-carboxamide]	910
CCCNC(=O)C1c2cc(F)ccc2C(=O)N1Cc1ccccc1-c1ccccc1 (centres unmarked) [2-(biphenyl-2-ylmethyl)-6-fluoro-3-oxo-N-propylisoindoline-1-carboxamide]	2800
CCCCNC(=O)C1c2cc(F)ccc2C(=O)N1CC(C)c1ccc(Cl)cc1 (single isomer, unassigned) [(1R or 1S)-N-butyl-2-[(2S or 2R)-2-(4-chlorophenyl)propyl]-6-fluoro-3-oxoisoindoline-1-carboxamide]	1700
C[C@H](c1ccccc1)N1C(=O)c2ccc(Br)cc2C1C(=O)NCc1ccccc1 (stereo partly drawn) [N-benzyl-6-bromo-3-oxo-2-[(1R)-1-phenylethyl]isoindoline-1-carboxamide]	210
O=C(NCc1ccccc1)C1c2cc(Cl)ccc2C(=O)N1Cc1ccccc1-c1ccccc1 (centres unmarked) [N-benzyl-2-(biphenyl-2-ylmethyl)-6-chloro-3-oxoisoindoline-1-carboxamide]	420
CCCCN(Cc1ccccc1)C(=O)C1c2ccccc2C(=O)N1CCc1ccc(Cl)cc1 (centres unmarked) [N-benzyl-N-butyl-2-[2-(4-chlorophenyl)ethyl]-3-oxoisoindoline-1-carboxamide]	340
COc1ccc2c(c1)C(=O)N(CC(C)c1ccc(Cl)cc1)C2C(=O)NCc1ccccc1 (centres unmarked) [N-benzyl-2-[2-(4-chlorophenyl)propyl]-5-methoxy-3-oxoisoindoline-1-carboxamide]	710
CC(CN1C(=O)c2cc(Cl)c(Cl)cc2C1C(=O)NC(C)(C)C)c1ccc(Cl)cc1 (centres unmarked) [N-(tert-butyl)-5,6-dichloro-2-[2-(4-chlorophenyl)propyl]-3-oxoisoindoline-1-carboxamide]	1800
Cc1c(O)ccc2c1C(=O)N(Cc1ccccc1-c1ccccc1)C2C(=O)NC(C)(C)C (single isomer, unassigned) [(S or R) 2-(biphenyl-2-ylmethyl)-N-(tert-butyl)-5-hydroxy-4-methyl-3-oxoisoindoline-1-carboxamide]	17000
CC(CN1C(=O)c2ccc(Cl)cc2C1C(=O)NCCCC(F)(F)F)c1ccc(Cl)cc1 (centres unmarked) [6-chloro-2-[2-(4-chlorophenyl)propyl]-3-oxo-N-(4,4,4-trifluorobutyl)isoindoline-1-carboxamide]	460
O=C(NCc1ccccc1)C1c2cc(F)ccc2C(=O)N1Cc1ccccc1-c1ccccc1 (centres unmarked) [N-benzyl-2-(biphenyl-2-ylmethyl)-6-fluoro-3-oxoisoindoline-1-carboxamide]	1000
CCCCNC(=O)C1c2cc(F)ccc2C(=O)N1CC(C)c1ccc(Cl)cc1 (single isomer, unassigned) [(1S or 1R)-N-butyl-2-[(2R or 2S)-2-(4-chlorophenyl)propyl]-6-fluoro-3-oxoisoindoline-1-carboxamide]	730
CC(C)(CO)CN1C(=O)c2ccc(Cl)cc2C1C(=O)NCc1cccc(OC(F)F)c1 (centres unmarked) [6-chloro-N-[3-(difluoromethoxy)benzyl]-2-(3-hydroxy-2,2-dimethylpropyl)-3-oxoisoindoline-1-carboxamide]	410
